pIC50: −log10 of the molar value.
Legend:
[1] = target: EYA3 (Homo sapiens (Human), UniProt Q99504); experiment: pNPP assay, full-length human recombinant EYA3; assay type: biochemical; details: pNPP substrate, full-length EYA3
Source text: The catalytic domain of mouse Eya3 (“ED”, comprising residues 223-510 of Eya3) was purified as described by Rayapureddi, J. P. et al. (FEBS Lett 580, 3853-3859 (2006), incorporated by reference in its entirety). For full-length Eya3 (“hEYA3”), human Eya3 isoform 2 (representing the major species identified in human cell lines by mass spectrometry, expressed as residues 127-573 of NM_001990, isoform 1) was sub-cloned into pDEST565 to express a poly-histidine-Glutathione-S-transferase (His-GST) tagged fusion protein with a TVMV protease site. The protein was purified by glutathione-S-transferase affinity chromatography followed by TVMV cleavage, Ni-NTA chromatography, and finally size exclusion chromatography. […]
The compounds were then tested using full-length human recombinant, purified EYA3 and pNPP as a substrate. Compounds were dissolved in DMSO and diluted as needed. […] Reactions were incubated at 30° C. for 30 minutes and quenched with 100 mM EDTA pH 10. IC50 values were then calculated directly from regression curves using PRISM software. All reported values are the mean of two independent experiments.

[2] = test system: HUVECs; experiment: HUVEC tubulogenesis on Matrigel; assay type: cell-based, human; details: for tube formation on Matrigel: HUVEC
Source text: Primary endothelial cells (ECs) on basement membrane rapidly attach, align themselves and form capillary-like tubules with lumens and tight cell-cell contacts. […] To better understand the stage in matrigel tube-formation affected by compound 1g cells plated on growth-factor reduced matrigel and treated with either vehicle or compound 1g were followed. Differences become apparent within the first two hours and were clearly visible at the 6-hour time-point. The ECs are much less organized in the presence of compound 1g. […] The effect of compound 1g on tube formation was attenuated in the presence of high concentrations of fetal bovine serum (FBS), likely reflecting non-specific protein binding.
The EYA inhibitors were also tested in tubulogenesis assays. The tubulogenesis assays were performed in 15-well micro-slide (ibidi LLC, Verona Wis.), using growth factor-reduced matrigel (BD Bioscience, Billerica, Mass.). The matrix was prepared by loading 10 μl of matrigel in each micro-slide well and allowing it to solidify for 30 minutes at 37° C. HUVECs were trypsinized and resuspended at 100.000 cell/ml in EBM+2.5% FBS. 50 μl (5,000 cell) were loaded on top of the solidified matrigel and the preparation was incubated for 20 hours at 37° C. in a humidified incubator in a 5% CO2 atmosphere. Bright field images were taken using an inverted microscope at 2.5× magnification, which allowed imaging of the whole well in two pictures that were later merged in Photoshop. Tubular structures were traced and counted using NeuroJ (NIH, USA). In experiments with inhibitor, the inhibitor was added to the cell suspension before loading. Each sample was loaded in triplicate, and each treatment was repeated for reproducibility.

[3] = test system: retinal vasculature; experiment: Mouse model of oxygen-induced retinopathy; assay type: in vivo, mice; details: 100 or 50 pmoles injected at P12, analyzed at P16
Source text: The mouse model of oxygen-induced retinopathy mimics the retinopathy characteristic of proliferative retiopathy conditions such as retinopathy of prematurity and diabetic retinopathy. […] The resulting retinal hypoxia after day 12, when pups were brought back to 20% O2, induced excessive hypoxia-driven angiogenesis. A characteristic large avascular area at the center of the retina and excessive regrowth of superficial vessels (pre-retinal neovascular tufts) in the mid-peripheral region was observed. […] In contrast, inhibition of either Vegf or Vegfr2 in OIR experiments suppresses both neovascular tuft formation and revascularization.

[4] = target: PTP1B (Homo sapiens (Human), UniProt P18031); experiment: PTP1B-catalyzed pNPP hydrolysis; assay type: biochemical; details: pNPP substrate
Method: The catalytic domain of human Eya2 (“hEYA2(ED)”) was similarly sub-cloned as a polyhistidine fusion construct in the vector pDEST-527. Fusion protein was purified by NiNTA chromatography and followed by size-exclusion chromatography over a Superdex-75 column. The relative purity of protein samples was determined using SDS-PAGE. PTP1B was purified as described previously (Rayapureddi, J. P. et al. Nature 426, 295-298 (2003), incorporated by reference in its entirety).
An inhibitory assay was conducted using the previously described p-nitrophenylphosphate assay (Rayapureddi, J. P. et al. Nature 426, 295-298 (2003)). Briefly, ED was incubated in a reaction mixture containing 20 mM MES pH 6, 2 mM MgCl2, 125 μM inhibitor, 3.4 mM para-nitrophenol phosphate (pNPP) and 0.01 μg/μL enzyme.
PTP1B is a classical Cys-based tyrosine phosphatase.

[5] = test system: HUVECs; experiment: HUVEC proliferation (MTT); assay type: cell-based, human; details: 5 μM, 24 hours
[6] = test system: mouse aortic rings; experiment: Aortic ring sprouting assay; assay type: cell-based
Method: Additionally, the effect of compounds 1d, 1f, 1h, 1i, 1g, 2 and 2a on cell proliferation, migration, tube formation, micro-vessel branching, and perivascular recruitment using an aortic ring sprouting assay. When slices of mouse aorta are cultured in collagen gels there is typically a lag phase for the first 4 days followed by linear sprouting of endothelial cells. By day 6, branching is observed. All the test compounds were initially assayed at 7.5 μM and the number of branch-points counted. When there was a severe effect (no visible sprouting), or when there was no apparent effect, other doses were tested to establish a dose-dependence. All of the compounds assayed were able to attenuate aortic ring sprouting. There was a strong reduction in initial sprouting and some attenuation of branching. With the exception of 2a, in all cases where there was sprouting, the length of sprouts was shorter than in the controls.
Endothelial cell migration can also be studied […] using the aortic ring assay in which sprouting angiogenesis is monitored by the formation of vascular sprouts outside the wall of mouse aortic rings incubated in collagen matrix and stimulated by VEGF (Gerhardt, H., et al. EXS, 3-15 (2005), hereby incorporated by reference in its entirety). Briefly, mice were obtained from the Cincinnati Children's veterinary service and handled according to the institutional animal care and use protocol. […] Mice were 4 to 6 weeks old female C57BL16, and aortic ring explants were cultured at 37° C. in a humidified incubator under a 5% CO2 atmosphere.
Each inhibitor was serially diluted (between 0.25 mM and 7.5 mM) to stocks of 1000× the working concentrations in sterile 100% DMSO in order to achieve an equal final concentration of DMSO (0.1% v/v) in all culture conditions. For the experiments, the compounds were diluted in EBM containing 2.5% FBS, penicillin/streptomycin and 20 ng/ml VEGF165 (R&D Systems, Minneapolis, Minn.). Each compound was applied from the first day of culture over a 10-day period with medium change every two days. In all experiments, the vehicle (DMSO, 0.1%) was used as control. The sprouting density was derived from counting the number of branches per ring, and the extent of angiogenic sprouting was estimated by measuring the total surface area covered by the vessels as illustrated in FIG. 7.

[7] = test system: developing zebrafish vasculature; experiment: Zebrafish model of angiogenesis; assay type: in vivo; details: exposure from 5.25 hpf, analysis at 24 hpf; compound 1 at 0.25 μM
Method: Embryos (FLK1-GFP trangenic) were maintained in fish water until the 50% epiboly stage (5.25 hpf) and were transferred into wells of 24-well plate containing the inhibitors in fish water. The analysis for vascular defects was performed after the 24 hpf stage, and embryos were imaged using a fluorescence microscope.
Transgenic fish expressing EGFP in endothelial cells (Tg(flk1:EGFP)) were used to facilitate visualization of the developing vasculature. In control experiments embryos were treated with 0.1% DMSO (vehicle). At the time of analyses (24 hpf) developing vessels normally migrated from the lateral plate mesoderm to the midline and formed the vascular cord, subsequently forming the dorsal aorta and the posterior cardinal vein and followed by the formation of intersegmental vessels at designated branch points (FIG. 6b).

[8] = test system: MCF10A(EYA2) cells; experiment: Transwell migration of MCF10A-EYA2 cells; assay type: cell-based; details: 7.5 μM
Source text: The tyrosine phosphatase activity of Eya3 and Eya2 promotes single cell motility in breast cancer cells (Pandey, R. N. et al. Oncogene (2010) 29:3715-3722, incorporated by reference in its entirety). EYA2 is over-expressed in breast cancers and is associated with increased metastasis and a poorer outcome (Farabaugh, et al. Oncogene (2011) 259). […] Overexpression of EYA2, but not the tyrosine-phosphatase dead mutant, promoted cell motility (FIG. 2a). […] This effect was dose-dependent (FIG. 2d) and compound (1a) was able to reduce cell motility by over 50% at the lowest concentration (1 μM) tested.
(§1) In order to determine whether EYA3 knock down would affect cell migration, a modified Boyden chamber assay was used to measure HUVEC migration. Briefly, human umbilical vein endothelial cells (HUVECs) were purchased from Lonza (Walkersville, Md.) and maintained in the endothelial cell growth medium (PromoCell, Hleidelberg, Germany), under a 5% CO2 atmosphere. MCF10A cells from ATCC were stably transfected with either pcDNA 3.2N5-DEST (vector control), V5-EYA2 or V5-EYA2(D250N). Transwell migration experiments were performed as previously described (Pandey, R. N. et al. Oncogene 29, 3715-3722, (2010)).

[9] = test system: HUVECs; experiment: HUVEC transwell migration; assay type: cell-based, human; details: 5 μM
Source text: as §1

[10] = test system: HUVEC cells; experiment: Scratch wound healing assay, HUVEC; assay type: cell-based, human; details: counted 22 hours later
Method: Cells were plated and grown to confluency. Scratch wounds were made using a sterile pipette tip, the medium changed to remove any cellular debris, and fresh medium with either vehicle or test compound was introduced. The number of cells that migrated into the cleared space was counted 22 hours later.

[11] = test system: HUVECs; experiment: HUVEC cell viability assay (WST-8); assay type: cell-based, human; details: 3 days of exposure
Method: Additionally, a cell viability assay was conducted over 3 days of exposure to test compounds 1, 1a and 1g in order to assess both the possibility of immediate cellular toxicity as well as any effect on cell proliferation. HUVECs were seeded and equilibrated for 24 hours before addition of the test compounds. Cellular metabolic activity was measured at defined time-points using the tetrazolium dye WST-8 to quantify NAD(P)H-dependent cellular oxidoreductase enzyme activity.

Sequence of EYA3 (Q99504 127-573): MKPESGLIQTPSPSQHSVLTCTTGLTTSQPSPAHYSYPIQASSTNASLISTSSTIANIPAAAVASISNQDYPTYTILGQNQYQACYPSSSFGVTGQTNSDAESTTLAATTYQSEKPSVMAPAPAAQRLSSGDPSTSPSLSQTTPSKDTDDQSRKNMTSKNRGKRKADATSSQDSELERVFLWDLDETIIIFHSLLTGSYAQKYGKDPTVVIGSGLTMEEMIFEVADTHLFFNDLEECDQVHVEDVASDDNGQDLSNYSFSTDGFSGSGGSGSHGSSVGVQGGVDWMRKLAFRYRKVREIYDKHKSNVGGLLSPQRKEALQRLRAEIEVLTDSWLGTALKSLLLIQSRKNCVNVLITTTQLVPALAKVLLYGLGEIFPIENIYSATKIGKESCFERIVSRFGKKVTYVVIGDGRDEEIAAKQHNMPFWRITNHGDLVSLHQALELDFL
Sequence of PTP1B (P18031 whole entry, species assumed, the tested form may be a part): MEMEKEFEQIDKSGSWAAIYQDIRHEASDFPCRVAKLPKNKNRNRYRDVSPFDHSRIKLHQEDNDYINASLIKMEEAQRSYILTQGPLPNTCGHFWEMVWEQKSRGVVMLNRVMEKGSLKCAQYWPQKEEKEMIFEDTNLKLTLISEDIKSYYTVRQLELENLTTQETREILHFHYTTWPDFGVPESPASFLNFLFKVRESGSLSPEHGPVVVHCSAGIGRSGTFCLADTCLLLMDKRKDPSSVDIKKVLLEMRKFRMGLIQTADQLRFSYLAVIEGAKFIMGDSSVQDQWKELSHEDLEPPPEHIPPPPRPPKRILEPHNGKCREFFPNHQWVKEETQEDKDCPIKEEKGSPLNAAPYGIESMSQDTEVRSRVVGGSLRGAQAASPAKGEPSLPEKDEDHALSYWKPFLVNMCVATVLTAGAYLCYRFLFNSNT

Row | pIC50 [1] | SMILES | tube formation on Matrigel [2] | also measured
1 | 5.47 | CCc1oc2ccccc2c1C(=O)c1cc(I)c(O)c(I)c1 [Compound 1c] | – | –
2 | 4.09 | Cc1oc2ccccc2c1C(=O)c1ccc(O)cc1 [Compound 1k] | – | –
3 | – | CC(O)CCc1oc2ccccc2c1C(=O)c1cc(I)c(O)c(I)c1 (centres unmarked) [Compound 2a] | did not show significant attenuation of tube formation | –
4 | 4.39 | CCc1oc2ccc(O)cc2c1C(=O)c1cc(Br)c(O)c(Br)c1 [Compound 1h] | did not show significant attenuation of tube formation | –
5 | – | CCCCc1oc2ccccc2c1C(=O)c1ccc(O)cc1 [Compound 1b] | – | formation of neovascular tufts [3]: Significant reduction in the formation of neovascular tufts; tubulogenesis inhibition ([2]; 7.5 μM): effective at the highest concentrations tested; pIC50 [4]: 4.15; HUVEC cell proliferation [5]: no effect on cell proliferation; sprout length and microvascular density of aortic rings ([6]; 5 μM, 10 days): shorter sprouts and significantly lower microvascular density; intersegmental vessels in zebrafish embryos [7]: reduced the number of intersegmental vessels, but were less potent; cell migration [8]: significantly inhibited cell migration; HUVEC cell motility [9]: attenuated HUVEC cell motility
6 | 4.86 | CC(O)Cc1oc2ccccc2c1C(=O)c1cc(I)c(O)c(I)c1 (centres unmarked) [Compound 1e] | – | –
7 | – | CCCCc1oc2ccccc2c1C(=O)c1cc(I)c(O)c(I)c1 [Compound 2] | did not show significant attenuation of tube formation | –
8 | 4.57 | CCc1oc2cc(O)ccc2c1C(=O)c1cc(Br)c(O)c(Br)c1 [Compound 1g] | much stronger inhibitory effect than compound 1a | reduction of cell migration [10]: ~80%; aortic ring sprouting ([6]; initially assayed at 7.5 μM): most potent inhibitor; reduction in cell proliferation [11]: over 50%
9 | 4.76 | Cc1oc2ccccc2c1C(=O)c1ccc(O)c(I)c1 [Compound 1f] | did not show significant attenuation of tube formation | –
10 | 4.38 | CC(O)c1oc2ccccc2c1C(=O)c1cc(Br)c(O)c(Br)c1 (centres unmarked) [Compound 1i] | – | –
11 | 4.14 | CCc1oc2ccc(O)cc2c1C(=O)c1ccc(O)cc1 [Compound 1j] | – | –
12 | 5.08 | Cc1oc2ccccc2c1C(=O)c1cc(I)c(O)c(I)c1 [Compound 1d] | did not show significant attenuation of tube formation | –

— patent US9725430B2, “Use of small molecule inhibitors targeting EYA tyrosine phosphatase” (Children's Hospital Medical Center, priority 2013, dated 2017)
